Experimental data from paper PMC6035175, “Ternary complex of Kif2A-bound tandem tubulin heterodimers represents a kinesin-13-mediated microtubule depolymerization reaction intermediate” (Nature Communications, 2018).
Each block holds one compound with its values, some of them ahead of it.

Tests used:
Kif2A-NM = target: T1, Kif2A-NM (Homo sapiens, UniProt O00139); test: malachite green phosphate release ATPase assay; type: biochemical; settings: tubulin- or microtubule-stimulated; BRB80-based buffer pH 6.8, 1 mM MgCl2, 75 mM KCl; without DARPin
T1 construct: neck plus motor domain, residues 153-553, monomer, 48 kDa, His-tagged, from E. coli BL21(DE3) pLysS; studied with bovine brain tubulin (1:2 complex), crystal also holds DARPin D1; full length 706 residues; with Tubulin alpha chain (Bos taurus, brain); Tubulin beta chain (Bos taurus, brain)

Kif2A-MD = target: T2, Kif2A-MD (Homo sapiens, UniProt O00139); test: malachite green phosphate release ATPase assay; type: biochemical; settings: tubulin- or microtubule-stimulated; BRB80-based buffer pH 6.8, 1 mM MgCl2, 75 mM KCl; without DARPin
T2 construct: motor domain without most of the neck, residues 203-554, pGex-6P1, PreScission-cleaved GST fusion; 1:1 complex with tubulin; with Tubulin alpha chain (Bos taurus, brain); Tubulin beta chain (Bos taurus, brain)

[1] = target: αβ-tubulin heterodimer from bovine brain (bovine) (UniProt Q6B856); test: not stated; Kif2A-MD with tubulin, shown in Supplementary Figure 6; method not given
[2] = target: αβ-tubulin heterodimer from bovine brain (bovine) (UniProt Q6B856); test: SEC-SAXS; in-line Superdex 200 10/300 GL, 20 mM HEPES, 150 mM NaCl, 1 mM MgCl2, pH 7.2; 25 μM tubulin, 27 μM DARPin, 20 μM Kif2A-NM, 0.1 mM AMPPNP; 270 kDa peak; 22 °C

Sequence of Kif2A-NM (human Kif2A neck plus motor domain, residues 153–553) (O00139 153-553): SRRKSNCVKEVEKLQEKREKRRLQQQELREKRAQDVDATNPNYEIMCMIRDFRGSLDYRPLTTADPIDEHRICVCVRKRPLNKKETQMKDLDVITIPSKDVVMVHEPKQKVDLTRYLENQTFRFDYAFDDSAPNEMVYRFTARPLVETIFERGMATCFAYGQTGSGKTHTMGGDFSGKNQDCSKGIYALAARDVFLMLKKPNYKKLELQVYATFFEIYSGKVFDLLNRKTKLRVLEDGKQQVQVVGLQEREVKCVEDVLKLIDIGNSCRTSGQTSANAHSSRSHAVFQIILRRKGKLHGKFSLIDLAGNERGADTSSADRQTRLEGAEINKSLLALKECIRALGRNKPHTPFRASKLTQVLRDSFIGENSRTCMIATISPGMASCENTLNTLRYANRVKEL
T1 sequence (O00139 153-553): as above
T1 sequence (P81947 whole entry partner, the tested form may be a part): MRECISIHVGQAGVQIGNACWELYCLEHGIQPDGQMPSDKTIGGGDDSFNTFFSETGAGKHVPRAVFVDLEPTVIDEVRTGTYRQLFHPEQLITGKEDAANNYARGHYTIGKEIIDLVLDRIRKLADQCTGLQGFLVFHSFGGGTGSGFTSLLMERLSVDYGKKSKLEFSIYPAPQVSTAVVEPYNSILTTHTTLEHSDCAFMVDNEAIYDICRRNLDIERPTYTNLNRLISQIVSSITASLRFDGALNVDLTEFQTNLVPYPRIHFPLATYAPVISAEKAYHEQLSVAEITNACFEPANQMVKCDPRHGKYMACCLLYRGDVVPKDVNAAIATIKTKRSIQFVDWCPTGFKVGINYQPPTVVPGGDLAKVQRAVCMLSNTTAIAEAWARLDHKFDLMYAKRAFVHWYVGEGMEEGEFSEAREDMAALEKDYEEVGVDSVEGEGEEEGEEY
T1 sequence (Q6B856 whole entry partner, the tested form may be a part): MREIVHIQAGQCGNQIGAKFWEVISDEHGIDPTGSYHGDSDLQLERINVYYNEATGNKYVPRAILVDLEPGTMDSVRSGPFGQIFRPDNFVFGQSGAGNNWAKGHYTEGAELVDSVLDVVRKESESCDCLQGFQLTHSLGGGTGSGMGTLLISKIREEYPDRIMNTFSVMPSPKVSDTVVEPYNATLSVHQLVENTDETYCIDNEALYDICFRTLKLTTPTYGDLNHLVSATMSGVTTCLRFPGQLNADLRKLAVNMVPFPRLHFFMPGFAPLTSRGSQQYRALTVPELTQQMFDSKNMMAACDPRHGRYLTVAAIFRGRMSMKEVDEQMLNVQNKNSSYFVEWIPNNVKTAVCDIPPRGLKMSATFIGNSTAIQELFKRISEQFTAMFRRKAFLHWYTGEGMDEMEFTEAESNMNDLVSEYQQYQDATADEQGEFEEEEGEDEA
T2 sequence (O00139 203-554): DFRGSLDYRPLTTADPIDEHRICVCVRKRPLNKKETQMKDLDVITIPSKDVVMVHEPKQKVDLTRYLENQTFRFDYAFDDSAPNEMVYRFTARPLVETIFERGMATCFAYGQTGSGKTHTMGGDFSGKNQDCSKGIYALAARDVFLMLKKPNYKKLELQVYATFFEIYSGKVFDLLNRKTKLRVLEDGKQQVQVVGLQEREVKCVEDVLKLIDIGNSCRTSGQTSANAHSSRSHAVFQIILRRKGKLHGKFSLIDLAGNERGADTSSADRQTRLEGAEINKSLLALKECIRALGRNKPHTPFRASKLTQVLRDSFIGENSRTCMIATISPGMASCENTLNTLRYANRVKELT
T2 sequence (P81947 whole entry partner, the tested form may be a part): as the sequence (P81947 whole entry partner, the tested form may be a part) above
T2 sequence (Q6B856 whole entry partner, the tested form may be a part): as the sequence (Q6B856 whole entry partner, the tested form may be a part) above
Sequence of Kif2A-MD (human Kif2A motor domain without the neck, residues 203–554) (O00139 203-554): as the sequence (O00139 203-554) above

Compound: Nc1ncnc2c1ncn2[C@@H]1O[C@H](COP(=O)(O)OP(=O)(O)OP(=O)(O)O)[C@@H](O)[C@H]1O [ATP]
ATP turnover rate (Kif2A-NM): ATP turnover rates of Kif2A-NM (orange) and Kif2A-MD (gray) in the presence of tubulin
ATP turnover rate (Kif2A-MD): ATP turnover rates of Kif2A-NM (orange) and Kif2A-MD (gray) in the presence of tubulin

stoichiometry N (Kif2A-MD per tubulin dimer (1:1)) [1]: 1
Compound: Kif2A-MD (human Kif2A motor domain without the neck, residues 203–554) (from UniProt O00139 203-554) (domain or fragment)

stoichiometry N (αβ-tubulin dimers per Kif2A-NM) [2]: 2
Compound: Kif2A-NM (human Kif2A neck plus motor domain, residues 153–553) (from UniProt O00139 153-553) (domain or fragment)
